Key:
[1] = Plasma and liver PK after single oral dose (Example 4C); assay type: in vivo, CD-1 mice; details: at 1 μmol/kg; single oral dose 10 mg/kg for 804a or 25 mg/kg for 804b
Protocol: Plasma samples were analyzed for 2′-methyl-2′-fluorouridine (2′-Me-2′-F-U) by LC-MS/MS. The internal standard (IS) was D3-2′-F-2′-Me-G. For protein precipitation and extraction, each plasma sample (50 μL) was treated with 500 μL of 0.2% formic acid in acetonitrile and 20 μL of the internal standard working solution. After vortexing and centrifugation, 500 μL of the sample extracts were transferred to a new plate, dried under N2 at ˜28° C. and reconstituted with 75 μL of 0.2% FA in water. The extracts were chromatographed on an Aquasil C18 column using a gradient system of 0.2% formic acid in water and acetonitrile. The analytes were detected and quantified by tandem mass spectrometry in positive ion mode on an MDS Sciex API5000 equipped with a Turbo Ionspray® interface. The calibration range was 0.500 (LLOQ) to 200 ng/mL in mouse plasma. The corresponding range for molar units is 1.92 to 769 pmol/mL.
Liver samples were analyzed for the active species 2′-methyl-2′-fluorouridine triphosphate (2′-Me-2′-F—U TP) by LC-MS/MS. […] Internal standard solution was added to the homogenate followed by neutralization with 20% ammonium hydroxide solution and addition of 500 μL 1% formic acid. The tissue samples were extracted by weak anion exchange solid phase extraction (SPE). […]

[2] = tested on: Huh-7 cells; assay: Release of active metabolite in Huh-7 cells; assay type: in vitro ADME, human; details: Table 7
Protocol: Huh-7 cells were plated in 1 mL culture medium (DMEM, containing glucose, L-glutamine and sodium pyruvate, 10% FBS, 100 IU/mL penicillin, 100 μg/mL streptomycin, 2 mM GlutaMAX, 1% MEM non-essential amino acids) at the concentration 0.8, 0.4 and 0.2 million cells per well on 6 well plates for 24, 48 and 72 hr treatment, respectively. Plated cells were incubated overnight at 37° C. in an incubator.
The following morning test compound was diluted to 20 μM from a stock solution in DMSO in fresh culture medium pre-warmed to 37° C. and 1 mL of the solution/well was added to cells. A final medium volume per well was 2.0 mL, test compound concentration in well was 10 μM and final DMSO concentration was 0.1%.
After 24, 48 or 72 hr, the medium was carefully removed and cell monolayers were washed twice with 2 mL ice-cold PBS per well. Following the last wash, all PBS was carefully removed and 1.0 mL of extraction solution (ice-cold 70% methanol) added. The plate was tightly covered with Parafilm, plastic plate cover and Parafilm again and an intracellular content was extracted at −20° C. for 24 hr.
After 24 hr the extracts were transferred into polypropylene microfuge tubes and dry on a refrigerated centrivap concentrator. Dry residues were reconstituted in 250 μL of HPLC-grade water and centrifuged at 16,000×g for 10 min. Aliquots (100 μL each) of the supernatants were transferred into a 96 well plate and internal standard (4 ng/mL final concentration) was added as the internal standard (IS) for LC-MS/MS analysis.

[3] = molecular target: T1, cathepsin A (CatA) (Homo sapiens, UniProt P10619); assay: Hydrolysis of prodrugs by Cathepsin A; assay type: in vitro ADME
T1 sequence (P10619 29-326 limits assumed): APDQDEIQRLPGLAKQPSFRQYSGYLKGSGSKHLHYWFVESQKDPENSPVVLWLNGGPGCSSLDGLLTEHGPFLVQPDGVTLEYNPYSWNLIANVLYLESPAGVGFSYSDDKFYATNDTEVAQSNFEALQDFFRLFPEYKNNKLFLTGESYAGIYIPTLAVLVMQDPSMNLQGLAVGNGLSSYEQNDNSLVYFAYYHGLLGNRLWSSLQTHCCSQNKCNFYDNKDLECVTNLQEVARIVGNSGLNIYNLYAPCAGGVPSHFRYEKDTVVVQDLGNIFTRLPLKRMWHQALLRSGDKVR
T1 sequence (P10619 327-480 limits assumed): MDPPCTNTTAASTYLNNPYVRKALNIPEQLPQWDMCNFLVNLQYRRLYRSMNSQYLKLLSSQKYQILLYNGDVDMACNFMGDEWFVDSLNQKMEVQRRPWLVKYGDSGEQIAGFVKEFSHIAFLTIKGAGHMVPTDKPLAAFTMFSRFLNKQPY
Protocol: CatA, cathepsin L (CatL) and CES1 were purchased from R & D Systems (Minneapolis, Minn.). Prior to the enzymatic hydrolysis reactions, CatA was activated according to the manufacturer's instruction. Briefly, CatA (0.05 μg/μL) was incubated with CatL (0.005 μg/μL) for 30 min at 37° C. in 25 mM MES pH 6.0 containing 5 mM DTT. The reaction was stopped by addition of the CatL specific inhibitor E64 (10 μM).
The CatA assay was performed at 37° C. The reaction mixture contained 25 mM MES buffer pH 6.0, 100 mM NaCl, 4 mM DTT and 100 μM of the compound. The reaction was started by addition of the activated CatA enzyme to a final concentration of 0.005 μg/μL. […] Reactions were stopped by mixing the sample with an equal volume of ice-cold methanol, and were loaded on a HPLC for analysis.

[4] = Liver TP formation and liver targeting in vivo (Example 6, Table 7); parameters: species or system mice and monkey
Excerpt: The in vitro antiviral inactivity of Z4 and Z2 is thought to reflect an inability of Huh-7 replicon cells to metabolize the prodrug moiety.

| Huh-7 AUC0-72 [2] [pmol*hr/10^6cells] | Hydrolysis by CatA [3] | CatA hydrolysis ([3]; @ 18 h, 100 μM compound, 37° C., pH 6.0) [%] | Liver TP [4] [pmol·h/g] | Compound | Ms Plasma 2′-Me-2′-F-U AUC [1] [M·s] |
| --- | --- | --- | --- | --- | --- |
|  |  |  |  | CC(C)OC(=O)[C@H](C)N[P@](=O)(OC[C@H]1O[C@@H](n2ccc(=O)[nH]c2=O)[C@](C)(F)[C@@H]1O)Oc1ccccc1 [GS-7977] | 0.00115 |
| 6527 | hydrolyzed | 10 | 310 | CC(C)OC(=O)[C@H](C)N[P@@](=O)(OC[C@H]1O[C@@H](n2ccc(=O)[nH]c2=O)[C@](C)(F)[C@@H]1O)Oc1ccccc1 [PSI-7976, reference compound] | 0.00115 |
